Read-outs that look alike come from different tables or passages of the source.
How the values were obtained:
Type in all cases: cell-based, human
Jurkat cells [1] = assay: MILLIPLEX MAP 7-plex DNA Damage/Genotoxicity Magnetic Bead Kit (Luminex)
Excerpt: (§1) In this study, we employed Luminex technology (MILLIPLEX® MAP 7-plex DNA Damage/Genotoxicity Magnetic Bead Kit and MILLIPLEX® MAP Early Apoptosis 7-plex Magnetic Bead Kit) to analyze protein analytes in Jurkat cell lysates. […] The Luminex xMAP intracellular protein assay is a multiplex multiparameter assay that employs a multiplex of fluorescent-labeled antibodies and magnetic particles to enhance the sensitivity, dynamic range, and accuracy of the analytical method. Luminex technology is employed to identify the proteins of interest present in each well. The mean fluorescence intensity (MFI) of each measured protein is then converted to its concentration (pg·mL^−1) using specialized software and standard curves.
(§2) The test substances were incubated with the cells at two concentrations, […], for a period of six hours. […] Following exposure, approximately 1 × 10⁶ cells from each well were transferred to 0.5-mL tubes (Eppendorf, Hamburg, Germany) and washed with PBS. Subsequently, the PBS was removed, 10 μL of lysis buffer (Cell Signaling Buffer and Detection Kit, Luminex, Austin, TX, USA) supplemented with 2 × protease and phosphatase inhibitors (Luminex, USA) was added, and the mixture was shaken for 30 s. A cocktail of fluorescence-encoded magnetic bead microspheres (MagPlex®, Luminex, USA) was resuspended and treated with ultrasound. Subsequently, 70 μL of this cocktail, 70 μL of protein standard, and 70 μL of the test sample were added to the wells of a 96-well microplate and incubated for 2 h at room temperature with stirring on an orbital shaker at 700–850 rpm. A magnetic plate was firmly attached to the bottom of a 96-well plate, and all wells were washed three times with 100 μL of wash buffer (Cell Signaling Buffer and Detection Kit, Luminex, USA) added to each well to remove unbound particles. Subsequently, 50 μL of […] to each well, and the samples were incubated for one hour at 4 °C on an orbital shaker set at 700–850 rpm. Subsequently, the samples were washed once more to remove any unbound antibodies. Afterwards, 70 μL of streptavidin-phycoerythrin (streptavidin-PE) (Luminex, USA) was added to each well and incubated for 30 min at room temperature on a shaker at 600 rpm. Subsequently, the samples were washed with streptavidin-PE and resuspended in 100 μL of wash buffer for a period of 2 min on a shaker at 800 rpm. The data were analyzed using the Milliplex Analyst 5.1 software (EMD Millipore, Billerica, MA, USA).

Jurkat cells [2] = assay: MILLIPLEX MAP Early Apoptosis 7-plex Magnetic Bead Kit (Luminex); conditions: 6 h; for Casp 8 protein level: activated caspase-8
Excerpt: as §1, §2

Jurkat = assay: Cytotoxicity assay (7-AAD, flow cytometry)
Method: (§3) The human cell lines Jurkat, K562, U937, and HEK293 were obtained from the European Collection of Authenticated Cell Cultures (ECACC) and subsequently cultured in accordance with established standard protocols and sterile techniques. […] Subsequently, the cells were seeded into 24-well plates at a density of 5 × 10^4 cells per well and incubated for 12 h (Jurkat, K562, U937) and 24 h (HEK293).
(§4) The viability of the cells was evaluated through the utilization of the 7-AAD (7-aminoactinomycin D) dye (eBioscience™, San Diego, CA, USA). Following a 24 h incubation period with the test substances, the cells were washed with phosphate-salt buffer (PBS) and centrifuged at 400× g for five minutes. […] Subsequently, all cell samples were subjected to analysis on a NovoCyte Penteon flow cytometer (Agilent, Santa Clara, CA, USA).

[3] = Cytotoxicity assay (7-AAD, flow cytometry); conditions: human
Method: (§5) The human cell lines Jurkat, K562, U937, and HEK293 were obtained from the European Collection of Authenticated Cell Cultures (ECACC) and subsequently cultured in accordance with established standard protocols and sterile techniques. The cells were maintained in RPMI 1640 (for Jurkat, K562, and U937) or DMEM (for HEK293) medium, both of which were supplemented with […], 10% FBS (Sigma, Kanagawa, Japan), and 100 units/mL penicillin-streptomycin (Sigma). Subsequently, the cells were seeded into 24-well plates at a density of 5 × 10^4 cells per well and incubated for 12 h (Jurkat, K562, U937) and 24 h (HEK293).
(§6) The viability of the cells was evaluated through the utilization of the 7-AAD (7-aminoactinomycin D) dye (eBioscience™, San Diego, CA, USA). Following a 24 h incubation period with the test substances, the cells were washed with phosphate-salt buffer (PBS) and centrifuged at 400× g for five minutes. The precipitate was resuspended in 200 μL of flow cytometry buffer (PBS without calcium and magnesium, 2.5% FBS) and incubated with a 1 mM 7-AAD dye solution for 15 min in the dark at room temperature. Subsequently, all cell samples were subjected to analysis on a NovoCyte Penteon flow cytometer (Agilent, Santa Clara, CA, USA).

[4] = Cytotoxicity assay (7-AAD, flow cytometry); conditions: human, Jurkat cells; Jurkat, 24 h incubation
Method: as §3, §4

Jurkat cells [5] = assay: Cell cycle analysis (MAK344 kit, flow cytometry); conditions: compound at CC50, 24 h
Method: Cell cycle analysis was performed using the MAK344 cell cycle assay kit (Sigma-Aldrich, St. Louis, MO, USA). Immediately after incubation with the tested compounds for 24 h, cells were gently washed with ice-cold phosphate-buffered saline (PBS) and centrifuged at 450× g for 5 min. After removing the supernatant, the cell precipitate was resuspended and fixed with 70% ethanol with continuous shaking on ice, and then stored at −18 degrees Celsius for 24 h. Prior to staining, the cells were washed with ice-cold PBS, and then 0.5 mL of the Cell Cycle Assay Kit working solution was added to the cell suspension at room temperature in the dark according to the working protocol. Samples were then analyzed on a NovoCyte Penteon flow cytometer (Agilent, USA).

U937 = assay: Cytotoxicity assay (7-AAD, flow cytometry); conditions: Homo sapiens, U-937; U937, abstract
Method: as §5, §6

K562 = assay: Cytotoxicity assay (7-AAD, flow cytometry); conditions: Homo sapiens; K562, abstract
Method: as §5, §6

HEK293 = assay: Cytotoxicity assay (7-AAD, flow cytometry); conditions: Homo sapiens; HEK293, abstract
Method: as §5, §6

[6] = 6 h, at CC50 (anisomycin at IC50 0.192 μmol/L), ATR (total)
[7] = 6 h, at CC50 (anisomycin at IC50 0.192 μmol/L), CHK1 (S345)
[8] = 6 h, at CC50 (anisomycin at IC50 0.192 μmol/L), CHK2 (T68)
[9] = 6 h, at CC50 (anisomycin at IC50 0.192 μmol/L), H2AX (S139)
[10] = 6 h, at CC50 (anisomycin at IC50 0.192 μmol/L), MDM2 (total)
[11] = 6 h, at CC50 (anisomycin at IC50 0.192 μmol/L), p21 (total)
[12] = 6 h, at CC50 (anisomycin at IC50 0.192 μmol/L), p53 (S15), genotoxicity panel
[13] = at CC50 (anisomycin at IC50 0.192 μmol/L), AKT/PKB (S473)
[14] = at CC50 (anisomycin at IC50 0.192 μmol/L), BAD (S112)
[15] = at CC50 (anisomycin at IC50 0.192 μmol/L), BCL-2 (S70)
[16] = at CC50 (anisomycin at IC50 0.192 μmol/L), JNK/SAPK1 (T183/Y185)
[17] = at CC50 (anisomycin at IC50 0.192 μmol/L)
[18] = at CC50 (anisomycin at IC50 0.192 μmol/L), activated caspase-9
[19] = at CC50 (anisomycin at IC50 0.192 μmol/L), p53 (S46), apoptosis panel
[20] = HEK293 cells, HEK293, 24 h incubation
[21] = K562 cells, K562, 24 h incubation
[22] = U937 cells, U937, 24 h incubation

Row | Structure (SMILES) | ATR protein level (Jurkat cells [1]; [6]) | Chk1 protein level (Jurkat cells [1]; [7]) | Chk2 protein level (Jurkat cells [1]; [8]) | H2A.X protein level (Jurkat cells [1]; [9]) | MDM2 protein level (Jurkat cells [1]; [10]) | p21 protein level (Jurkat cells [1]; [11]) | p53 protein level (Jurkat cells [1]; [12]) | Akt protein level (Jurkat cells [2]; [13]) | Bad protein level (Jurkat cells [2]; [14]) | Bcl-2 protein level (Jurkat cells [2]; [15]) | JNK protein level (Jurkat cells [2]; [16]) | Casp 8 protein level (Jurkat cells [2]; [17]) | Casp9 protein level (Jurkat cells [2]; [18]) | p53 protein level (Jurkat cells [2]; [19]) | CC50 at 24 h [3, 20] | CC50 at 24 h [3, 21] | CC50 at 24 h [3, 22] | CC50 at 24 h [4] | cell population in the S-phase (Freq S) (Jurkat cells [5]) | percentage of cells in the G2/M phase (Freq G2) (Jurkat cells [5]) | also measured
1 | COc1ccc(C[C@H]2NC[C@H](O)[C@H]2OC(C)=O)cc1 [Anisomycin, anisomycin, reference compound] | 440 % of control | 610 % of control | 20836 % of control | 1841 % of control | 367 % of control | 3727 % of control | 738 % of control | 129 % of control | 486 % of control | 3180 % of control | 357 % of control | 1229 % of control | 9353 % of control | 17 % of control |  |  |  |  |  |  | IC50 (Jurkat; Jurkat cells, concentration used for the control compound, read-out: IC50): 0.192 µM
2 | CC[C@@]1(O)C(=O)OCc2c1cc1n(c2=O)Cc2cc3ccccc3nc2-1 [CPT, camptothecin, reference compound] | 263 % of control | 52 % of control | 5800 % of control | 957 % of control | 1417 % of control | 170654 % of control | 17285 % of control | 196 % of control | 516 % of control | 580 % of control | 141 % of control | 209 % of control | 10289 % of control | 132 % of control | 0.692 ± 0.0536 µM | 0.595 ± 0.0544 µM | 0.522 ± 0.0444 µM | 0.588 ± 0.0462 µM |  |  | 
3 | CC(=O)O[C@H]1CC[C@@]2(C)C(CC[C@]3(C)C2CC=C2C4CC(C)(C)CC[C@]4(C(=O)Nc4ccnn4C)CC[C@]23C)C1(C)C (stereo partly drawn) [compound 7a] |  |  |  |  |  |  |  |  |  |  |  |  |  |  | 58.4 ± 6.02 µM | 17.7 ± 1.39 µM | 14.4 ± 1.04 µM | 22.1 ± 1.96 µM | 48.89% | 1.91% | 
4 | Cn1nccc1NC(=O)[C@]12CCC(C)(C)C[C@H]1C1=CC[C@@H]3[C@@]4(C)CC[C@H](OC(=O)CCC/C=C\CC/C=C\CCCC(=O)O)C(C)(C)[C@@H]4CC[C@@]3(C)[C@]1(C)CC2 [compound 9a] | 131 % of control | 144 % of control | 936 % of control | 3173 % of control | 102 % of control | 390 % of control | 128 % of control |  | 55 % of control | 20 % of control | 106 % of control | 17 % of control | 1341 % of control | 160 % of control | 26.2 ± 1.93 µM | 3.09 ± 0.34 µM | 2.85 ± 0.34 µM | 4.51 ± 0.41 µM | 46.10% | 3.96% | ATR protein level (Jurkat cells [1]; 6 h, at 0,5CC50): 119 % of control; Chk1 protein level (Jurkat cells [1]; 6 h, at 0,5CC50): 97 % of control; Chk2 protein level (Jurkat cells [1]; 6 h, at 0,5CC50): 645 % of control; H2A.X protein level (Jurkat cells [1]; 6 h, at 0,5CC50): 2485 % of control; MDM2 protein level (Jurkat cells [1]; 6 h, at 0,5CC50): 115 % of control; p21 protein level (Jurkat cells [1]; 6 h, at 0,5CC50): 318 % of control; p53 protein level (Jurkat cells [1]; 6 h, at 0,5CC50, genotoxicity panel): 52 % of control; level of phosphorylated H2A.X in comparison to the control compound camptothecin (Jurkat cells [1]; 6 h, at 0.5CC50): ~3.5 fold; phosphorylated H2A.X, marker of DNA double-strand breaks (Jurkat cells [1]; six hours): dose-dependent increase; IC50 (U937): 2.8 µM; IC50 (K562): 3.1 µM; IC50 (HEK293): 26.2 µM; Akt protein level (Jurkat cells [2]; at 0,5CC50): 15 % of control; Bad protein level (Jurkat cells [2]; at 0,5CC50): 106 % of control; Bcl-2 protein level (Jurkat cells [2]; at 0,5CC50): 140 % of control; Casp9 protein level (Jurkat cells [2]; at 0,5CC50): 1144 % of control; JNK protein level (Jurkat cells [2]; at 0,5CC50): 78 % of control; p53 protein level (Jurkat cells [2]; at 0,5CC50, apoptosis panel): 112 % of control; percentage of cells in the pre-G0 phase (Freq Sub-G1) (Jurkat cells [5]): 8.67%; IC50 (Jurkat; Homo sapiens, Jurkat, abstract, read-out: IC50 Jurkat): 4.5 µM
